# Measurements published in publication PMC10735184, “Attractant and repellent induce opposing changes in the four-helix bundle ligand-binding domain of a bacterial chemoreceptor” (PLOS Biology, 2023).
# What was measured:
# [1] = biological target: T1, MCP2201 (Comamonas thiooxydans, UniProt A0ABF7PFR0, T108A); experiment: ITC; format: binding
# T1 construct: gene CtCNB1_2201; MCP2201-LBD (residues 58–203), isolated periplasmic domain
# [2] = biological target: T2, MCP2201 (Comamonas thiooxydans, UniProt A0ABF7PFR0); experiment: ITC; crystal structure at […] Å; analytical ultracentrifugation; format: binding
# T2 construct: gene CtCNB1_2201; MCP2201-LBD (residues 58–203), N-terminal His6-tag
# T2 sequence (A0ABF7PFR0 58-203): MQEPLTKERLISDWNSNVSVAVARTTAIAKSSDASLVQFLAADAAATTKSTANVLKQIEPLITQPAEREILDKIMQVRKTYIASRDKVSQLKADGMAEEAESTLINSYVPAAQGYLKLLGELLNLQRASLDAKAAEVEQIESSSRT
structure (smiles),measurement,setting,value
O=C(O)C[C@H](O)C(=O)O [L-malate],Kd,[1],995 ± 438 µM
same,Kd,[2],18.8 ± 7.45 µM
